Assay results published in patent US9315491B2 (DEVELOPMENT CENTER FOR BIOTECHNOLOGY, priority 2009, dated 2016).

Molecular target: recombinant mTOR (Homo sapiens (Human), UniProt P42345)
Assay: mTOR kinase assay (33P incorporation into 4EBP1)
Format: biochemical
Details: compound at 10 μM, 10 μM ATP
Procedure: The activity of the compound against mTOR was examined by measuring the incorporation of ^33P from [γ-^33P]-ATP into 4EBP1. His-tagged, recombinant human 4EBP1 was expressed in E. coli, purified by nickel-nitrilotriacetic acid (Ni-NTA) resins, and stored at −80° C. Phosphorylation of 4EBP1 by mTOR was assayed in the presence or absence of the compound and performed in a final volume of 25 μl reaction buffer containing 300 ng 4EBP1, 50 ng recombinant mTOR (Invitrogen), 50 mM HEPES (pH 7.5), 1 mM EGTA, 0.01% Polysorbate 20, 10 mM MnCl2, 2.5 mM DTT, 10 μM ATP, and 0.5 μCi [γ-33P]-ATP (PerkinElmir) for 30 min at 30° C. The reactions were terminated by adding 3% phosphoric acid. The ^33P labeled 4EBP1 was transferred onto UniFilter-96 GF/B plate (PerkinElmer) and quantified by Top Count Microplate Scintillation Counter (PerkinElmer). For primary screening of kinase activity inhibition, each test compound was evaluated at […] in duplicate. […] The IC50 values of the compounds were determined after carrying out assays at eight serially diluted concentrations of each compound in duplicate. The results were analyzed using linear regression software (GraphPad Prism 5; GraphPad Software Inc.).
IC50 value is defined as the concentration of the test compound which achieves a half-maximal inhibition of the kinase activity.

recombinant mTOR, sequence (P42345 1360-2549): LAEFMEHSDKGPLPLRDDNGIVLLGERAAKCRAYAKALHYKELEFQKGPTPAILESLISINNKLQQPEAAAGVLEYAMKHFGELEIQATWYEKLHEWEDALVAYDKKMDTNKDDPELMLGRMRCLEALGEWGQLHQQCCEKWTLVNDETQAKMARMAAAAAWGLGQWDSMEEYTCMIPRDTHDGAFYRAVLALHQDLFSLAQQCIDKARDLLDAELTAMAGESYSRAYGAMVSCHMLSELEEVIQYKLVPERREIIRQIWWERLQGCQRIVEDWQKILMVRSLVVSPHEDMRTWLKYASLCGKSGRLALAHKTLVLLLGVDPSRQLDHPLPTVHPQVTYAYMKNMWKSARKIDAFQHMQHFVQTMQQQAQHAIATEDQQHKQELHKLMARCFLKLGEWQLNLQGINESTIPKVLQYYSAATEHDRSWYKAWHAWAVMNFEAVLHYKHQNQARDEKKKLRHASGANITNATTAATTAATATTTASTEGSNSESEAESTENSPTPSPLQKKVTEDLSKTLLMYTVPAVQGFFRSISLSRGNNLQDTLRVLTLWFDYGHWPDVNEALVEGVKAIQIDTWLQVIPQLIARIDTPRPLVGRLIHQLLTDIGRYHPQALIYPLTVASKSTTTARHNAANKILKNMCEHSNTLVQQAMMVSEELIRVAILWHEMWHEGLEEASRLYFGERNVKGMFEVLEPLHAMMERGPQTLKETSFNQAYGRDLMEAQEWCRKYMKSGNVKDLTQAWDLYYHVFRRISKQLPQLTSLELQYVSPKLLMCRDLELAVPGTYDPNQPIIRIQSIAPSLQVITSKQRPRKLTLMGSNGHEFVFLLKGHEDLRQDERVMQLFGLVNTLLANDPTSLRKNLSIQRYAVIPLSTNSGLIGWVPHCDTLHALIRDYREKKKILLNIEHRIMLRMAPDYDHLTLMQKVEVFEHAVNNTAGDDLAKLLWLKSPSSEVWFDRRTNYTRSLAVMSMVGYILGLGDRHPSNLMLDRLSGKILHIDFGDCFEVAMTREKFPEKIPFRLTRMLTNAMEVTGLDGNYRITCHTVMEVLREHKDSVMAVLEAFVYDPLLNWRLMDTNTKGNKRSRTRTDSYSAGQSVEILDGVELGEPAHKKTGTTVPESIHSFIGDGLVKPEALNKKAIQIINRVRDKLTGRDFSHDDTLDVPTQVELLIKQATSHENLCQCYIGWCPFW

In order of rising inhibition at 10 µM:
1. CCOc1cnc(-c2ccc(NC(=O)Nc3ccc(N4CCSCC4)cc3)cc2)nc1N1CCOCC1 [MTR-0324, 1-[4-(5-Ethoxy-4-morpholin-4-yl-pyrimidin-2-yl)-phenyl]-3-(4-thiomorpholin-4-yl-phenyl)-urea]  81%
2. CSc1c(Cl)nc(-c2cnc(N)nc2)nc1N1CCOCC1 [MTR-0373, 6-Chloro-5-methylsulfanyl-4-morpholin-4-yl-[2,5′]bipyrimidinyl-2′-ylamine]  81%
3. CSc1c(Cl)nc(-c2ccc(NC(=O)Nc3ccc(NC(C)=O)nc3)cc2)nc1N1CCOCC1 [MTR-0415, N-(5-{3-[4-(4-Chloro-5-methylsulfanyl-6-morpholin-4-yl-pyrimidin-2-yl)-phenyl]-ureido}-pyridin-2-yl)-acetamide]  81%
4. CSc1c(Cl)nc(-c2ccc(NC(=O)O)cc2)nc1N1CCOCC1 [MTR-0307, [4-(4-Chloro-5-methylsulfanyl-6-morpholin-4-yl-pyrimidin-2-yl)-phenyl]-carbamic acid]  82%
5. CSc1c(Cl)nc(-c2ccc(NC(N)=O)c(F)c2)nc1N1CCOCC1 [MTR-0356, [4-(4-Chloro-5-methylsulfanyl-6-morpholin-4-yl-pyrimidin-2-yl)-2-fluoro-phenyl]-urea]  82%
6. CSc1cnc(-c2ccc(NC(=O)NC(C)C)cc2)nc1N1CCOCC1 [MTR-0341, 1-Isopropyl-3-[4-(5-methylsulfanyl-4-morpholin-4-yl-pyrimidin-2-yl)-phenyl]-urea]  83%
7. CSc1cnc(-c2ccc(NC(=S)Nc3ccc(N4CCOCC4=O)cc3)cc2)nc1N1CCOCC1 [MTR-0319, 1-[4-(5-Methylsulfanyl-4-morpholin-4-yl-pyrimidin-2-yl)-phenyl]-3-[4-(3-oxo-morpholin-4-yl)-phenyl]-thiourea]  84%
8. CCOC(=O)c1ccc(NC(=O)Nc2ccc(-c3nc(C(=O)OCC)c(OCC)c(N4CCOCC4)n3)cc2)cc1 [MTR-0362, 5-Ethoxy-2-{4-[3-(4-ethoxycarbonyl-phenyl)-ureido]-phenyl}-6-morpholin-4-yl-pyrimidine-4-carboxylic acid ethyl ester]  84%
9. CSc1c(Cl)nc(-c2ccc(NC(=O)Nc3ccc(N4CCOCC4)cn3)cc2)nc1N1CCOCC1 [MTR-0328, 1-[4-(4-Chloro-5-methylsulfanyl-6-morpholin-4-yl-pyrimidin-2-yl)-phenyl]-3-(5-morpholin-4-yl-pyridin-2-yl)-urea]  85%
10. CCOC(=O)c1nc(-c2ccc(NC(=O)NC(C)C)cc2)nc(N2CCOCC2)c1OCC [MTR-0366, 5-Ethoxy-2-[4-(3-isopropyl-ureido)-phenyl]-6-morpholin-4-yl-pyrimidine-4-carboxylic acid ethyl ester]  85%
11. CCOc1cnc(-c2ccc(NC(=O)Nc3ccc(C(N)=O)cc3)cc2)nc1-c1ccncc1 [MTR-0400, 4-{3-[4-(5-Ethoxy-4-pyridin-4-yl-pyrimidin-2-yl)-phenyl]-ureido}-benzamide]  85%
12. CSc1c(Cl)nc(-c2ccc(NC(=O)Nc3ccc(S(N)(=O)=O)cc3)c(F)c2)nc1N1CCOCC1 [MTR-0410, 4-{3-[4-(4-Chloro-5-methylsulfanyl-6-morpholin-4-yl-pyrimidin-2-yl)-2-fluoro-phenyl]-ureido}-benzenesulfonamide]  85%
13. COc1cnc(-c2ccc(Nc3nc4ccccc4[nH]3)cc2)nc1N1CCOCC1 [MTR-0310, (1H-Benzoimidazol-2-yl)-[4-(5-methoxy-4-morpholin-4-yl-pyrimidin-2-yl)-phenyl]-amine]  86%
14. CCOC(=O)c1nc(-c2cnc(NC(=O)Nc3ccc(N4CCOCC4=O)cc3)nc2)nc(N2CCOCC2)c1OCC [MTR-0403, 5-Ethoxy-6-morpholin-4-yl-2′-{3-[4-(3-oxo-morpholin-4-yl)-phenyl]-ureido}-[2,5′]bipyrimidinyl-4-carboxylic acid ethyl ester]  88%
15. COc1cnc(-c2ccc(NC(=S)Nc3ccc(N4CCOCC4=O)cc3)cc2)nc1N1CCOCC1 [MTR-0335, 1-[4-(5-Methoxy-4-morpholin-4-yl-pyrimidin-2-yl)-phenyl]-3-[4-(3-oxo-morpholin-4-yl)-phenyl]-thiourea]  89%
16. COc1cnc(-c2ccc(NC(N)=O)cc2)nc1N1CCOCC1 [MTR-0336, [4-(5-Methoxy-4-morpholin-4-yl-pyrimidin-2-yl)-phenyl]-urea]  89%
17. CSc1c(Cl)nc(-c2ccc(NC(=O)NC(C)C)cc2)nc1N1CCOCC1 [MTR-0306, 1-[4-(4-Chloro-5-methylsulfanyl-6-morpholin-4-yl-pyrimidin-2-yl)-phenyl]-3-isopropyl-urea]  90%
18. CSc1cnc(-c2ccc(NC(=O)Nc3ccc(N4CCN(C)CC4)cn3)cc2)nc1N1CCOCC1 [MTR-0318, 1-[5-(4-Methyl-piperazin-1-yl)-pyridin-2-yl]-3-[4-(5-methylsulfanyl-4-morpholin-4-yl-pyrimidin-2-yl)-phenyl]-urea]  91%
19. CSc1cnc(-c2ccc(NC(=O)Nc3ccc(OCCN(C)C)cc3)cc2)nc1N1CCOCC1 [MTR-0343, 1-[4-(2-Dimethylamino-ethoxy)-phenyl]-3-[4-(5-methylsulfanyl-4-morpholin-4-yl-pyrimidin-2-yl)-phenyl]-urea]  92%
20. CCOC(=O)c1nc(-c2ccc(NC(=O)Nc3ccc(C(N)=O)cc3)c(F)c2)nc(N2CCOCC2)c1OCC [MTR-0344, 2-{4-[3-(4-Carbamoyl-phenyl)-ureido]-3-fluoro-phenyl}-5-ethoxy-6-morpholin-4-yl-pyrimidine-4-carboxylic acid ethyl ester]  92%
21. CS(=O)(=O)c1cnc(-c2ccc(NC(=O)Nc3ccc(N4CCOCC4=O)cc3)cc2)nc1N1CCOCC1 [MTR-0381, 1-[4-(5-Methanesulfonyl-4-morpholin-4-yl-pyrimidin-2-yl)-phenyl]-3-[4-(3-oxo-morpholin-4-yl)-phenyl]-urea]  92%
22. CSc1cnc(-c2ccc(NC(=O)Nc3ccc4c(c3)OCO4)cc2)nc1N1CCOCC1 [MTR-0317, 1-Benzo[1,3]dioxol-5-yl-3-[4-(5-methylsulfanyl-4-morpholin-4-yl-pyrimidin-2-yl)-phenyl]-urea]  93%
23. COc1cnc(-c2ccc(NC(=O)Nc3ccc(N4CCN(C)CC4)cn3)cc2)nc1N1CCOCC1 [MTR-0334, 1-[4-(5-Methoxy-4-morpholin-4-yl-pyrimidin-2-yl)-phenyl]-3-[5-(4-methyl-piperazin-1-yl)-pyridin-2-yl]-urea]  93%
24. CCOC(=O)c1nc(-c2ccc(NC(=O)Nc3ccc(OCCN(C)C)cc3)cc2)nc(N2CCOCC2)c1OCC [MTR-0363, 2-(4-{3-[4-(2-Dimethylamino-ethoxy)-phenyl]-ureido}-phenyl)-5-ethoxy-6-morpholin-4-yl-pyrimidine-4-carboxylic acid ethyl ester]  93%
25. CSc1c(Cl)nc(-c2ccc(NC(=O)Nc3ccc(C(N)=O)cc3)cc2F)nc1N1CCOCC1 [MTR-0411, 4-{3-[4-(4-Chloro-5-methylsulfanyl-6-morpholin-4-yl-pyrimidin-2-yl)-3-fluoro-phenyl]-ureido}-benzamide]  93%
26. COc1cnc(-c2ccc(NC(=O)Nc3ccc(OCCN(C)C)cc3)cc2)nc1N1CCOCC1 [MTR-0312, 1-[4-(2-Dimethylamino-ethoxy)-phenyl]-3-[4-(5-methoxy-4-morpholin-4-yl-pyrimidin-2-yl)-phenyl]-urea]  94%
27. COc1cnc(-c2ccc(NC(=O)Nc3ccc(N4CCN(C)CC4)nc3)cc2)nc1N1CCOCC1 [MTR-0338, 1-[4-(5-Methoxy-4-morpholin-4-yl-pyrimidin-2-yl)-phenyl]-3-[6-(4-methyl-piperazin-1-yl)-pyridin-3-yl]-urea]  94%
28. COc1cnc(-c2ccc(NC(=O)Nc3ccc(Br)nc3)cc2)nc1N1CCOCC1 [MTR-0352, 1-(6-Bromo-pyridin-3-yl)-3-[4-(5-methoxy-4-morpholin-4-yl-pyrimidin-2-yl)-phenyl]-urea]  94%
29. CCOC(=O)c1nc(-c2ccc(NC(=O)Nc3ccc(C(N)=O)cc3)cc2F)nc(N2CCOCC2)c1OCC [MTR-0345, 2-{4-[3-(4-Carbamoyl-phenyl)-ureido]-2-fluoro-phenyl}-5-ethoxy-6-morpholin-4-yl-pyrimidine-4-carboxylic acid ethyl ester]  95%
30. CSc1c(-c2ccncc2)nc(-c2ccc(N)cc2)nc1N1CCOCC1 [MTR-0360, 4-(5-Methylsulfanyl-4-morpholin-4-yl-6-pyridin-4-yl-pyrimidin-2-yl)-phenylamine]  95%
31. CCOC(=O)c1nc(-c2ccc(NC(=O)Nc3ccc4c(c3)OCO4)cc2)nc(N2CCOCC2)c1OCC [MTR-0361, 2-[4-(3-Benzo[1,3]dioxol-5-yl-ureido)-phenyl]-5-ethoxy-6-morpholin-4-yl-pyrimidine-4-carboxylic acid ethyl ester]  95%
32. CSc1c(Cl)nc(-c2ccc(NC(=O)Nc3ccc(N)cc3)cc2)nc1N1CCOCC1 [MTR-0329, 1-(4-Amino-phenyl)-3-[4-(4-chloro-5-methylsulfanyl-6-morpholin-4-yl-pyrimidin-2-yl)-phenyl]-urea]  97%
